Measurements as given in US20030134859A1 (SANKYO COMPANY, LIMITED, priority 2000, published 2003).

Experiments:
[1] = tested on: human colon cancer cells COL-2-JCK; experiment: Inhibition of colony forming activity in human colon cancer cells; format: cell-based; settings: Homo sapiens, 240 h; 1 μM test compound; 10 days; sum of colony areas vs control; read-out: Inhibition Rate (%) against the colony forming activity
Summary of the method: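 COL-2-JCK cells seeded at 300 cells/well and grown 10 days at 37 °C, 5% CO2 with compound at 1 μM final (0.1% DMSO). Colonies stained with crystal violet in formalin; inhibition % = (1 − treated/control colony area)×100.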

[2] = tested on: Mouse preadipocyte strain 3T3-L1; experiment: Inhibition of differentiation as an indication of acetic acid uptake; format: cell-based; settings: Mus musculus, 3T3-L1, 0.1 μM test substance, control (0.01% dimethylsulfoxide) = 100%, read-out: Rate of Uptake (%) of [2-14C] acetic acid
Summary of the method: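 Differentiation is indexed by 1 hr [2-14C]acetic acid incorporation, measured by scintillation counting and given as uptake relative to 0.01% DMSO control (100%). Mouse 3T3-L1 preadipocytes, pre-grown 10 days, received 0.1 μM test substance throughout a 4-day insulin/IBMX/dexamethasone induction, followed by 2 days' maintenance culture.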

SMILES	inhibition at 1 µM [1] [%]	activity at 0.1 µM [2] [%]
Cc1csc(NC(=O)c2cc([N+](=O)[O-])ccc2Cl)n1 [Example 3, N-(4-Methylthiazol-2-yl)-(2-chloro-5-nitrophenyl)carboxamide]	27	68.9
O=C(Nc1nc2ccc(Cc3ccc(F)cc3)cc2s1)c1cc([N+](=O)[O-])ccc1Cl [Example 90, N-[6-(4-Fluorobenzyl)benzothiazol-2-yl]-(2-chloro-5-nitrophenyl)carboxamide]	47	60.5
